Test results published in patent US8101576B2, “Compounds and their effects on feeding behaviour” (priority 2006, dated 2012).
Square brackets hold non-standard residues; d marks the D form. Ends that are not written are not given here. * marks the point of attachment. Palmitoyl = CCCCCCCCCCCCCCCC(=O)*; Myristoyl = CCCCCCCCCCCCCC(=O)*

Assay: Inhibition of food intake, subcutaneous injection to fasted rats
Assay type: in vivo, Wistar rats
Procedure: Animals: All animal procedures were approved by the British Home Office Animals (Scientific Procedures) Act 1986 (Project License number 70/5516).
Study protocol: C57BL/6 mice (20-35 g) were injected with the peptide under investigation following a 20-hour fast. Wistar rats were injected following a 24-hour fast. […] A pre-weighed quantity of chow was presented immediately after injection.

## D-His Ala Asp Gly Thr Phe Thr Ser Asp Tyr Ser Lys Tyr Leu Glu Glu Glu Leu Val Lys Tyr Phe Ile Gln Trp Leu Lys Asn Gly Gly Pro Ser Lys Asn Asn Ile Ala Ala Ala Lys-myristoyl ([dH]ADGTFTSDYSKYLEEELVKYFIQWLKNGGPSKNNIAAAK(Myristoyl)) [PEPTIDE NO: 206]
80 mmoles/kg, over 48 hours
  food intake in comparison to control group treated with native oxyntomodulin: lower than in the control group treated with native oxyntomodulin
Over 48 hours
  Mean cumulative food intake in comparison to saline control: potent and long acting suppression of food intake

## D-His Ser Gln Gly Thr Phe Thr Ser Asp Tyr Ser Lys Tyr Leu Glu Glu Glu Leu Val Lys Tyr Phe Ile Gln Trp Leu Met Asn Thr Lys Arg Asn Lys Asn Asn Ile Ala ([dH]SQGTFTSDYSKYLEEELVKYFIQWLMNTKRNKNNIA) [PEPTIDE NO: 60]
100 nmoles/kg, over 24 hours
  Mean cumulative food intake in comparison to saline control: potent and long acting suppression of food intake
  food intake in comparison to control group treated with native oxyntomodulin: lower than in the control group treated with native oxyntomodulin

## D-His Ala Asp Gly Thr Phe Thr Ser Asp Tyr Ser Lys Tyr Leu Glu Glu Glu Leu Val Lys Tyr Phe Leu Gln Trp Leu Lys Asn Ala Gly Pro Ser Lys Asn Asn Ile Ala ([dH]ADGTFTSDYSKYLEEELVKYFLQWLKNAGPSKNNIA) [PEPTIDE NO: 148]
10 nmoles/kg, over 24 hours
  Mean cumulative food intake in comparison to saline control: potent and long acting suppression of food intake
  food intake in comparison to control group treated with native oxyntomodulin: lower than in the control group treated with native oxyntomodulin

## D-His Ala Asp Gly Thr Phe Thr Ser Asp Tyr Ser Lys Tyr Leu Glu Gln Glu Ile Val Lys Tyr Phe Ile Gln Trp Leu Lys Asn Gly Gly Pro Ser Lys Asn Asn Ile Ala Lys ([dH]ADGTFTSDYSKYLEQEIVKYFIQWLKNGGPSKNNIAK) [PEPTIDE NO: 202]
5 nmoles/kg, over 48 hours
  Mean cumulative food intake in comparison to saline control: potent and long acting suppression of food intake
  food intake in comparison to control group treated with native oxyntomodulin: lower than in the control group treated with native oxyntomodulin

## D-His Ala Asp Gly Thr Phe Thr Ser Asp Tyr Ser Lys Tyr Leu Glu Gln Glu Leu Val Lys Tyr Phe Ile Gln Trp Leu Lys Asn Gly Gly Pro Ser Lys Asn Asn Ile Ala Lys ([dH]ADGTFTSDYSKYLEQELVKYFIQWLKNGGPSKNNIAK) [PEPTIDE NO: 205]
5 nmoles/kg, over 32 hours
  Mean cumulative food intake in comparison to saline control: potent and long acting suppression of food intake
  food intake in comparison to control group treated with native oxyntomodulin: lower than in the control group treated with native oxyntomodulin

## D-His Ala Gln Gly Thr Phe Thr Ser Asp Tyr Ser Lys Tyr Leu Glu Gln Glu Ile Val Lys Tyr Phe Ile Gln Trp Leu Lys Asn Ala Gly Pro Ser Lys Asn Asn Ile Ala ([dH]AQGTFTSDYSKYLEQEIVKYFIQWLKNAGPSKNNIA) [PEPTIDE NO: 142]
3 nmoles/kg, over 24 hours
  Mean cumulative food intake in comparison to saline control: potent and long acting suppression of food intake
  food intake in comparison to control group treated with native oxyntomodulin: lower than in the control group treated with native oxyntomodulin

## D-His Ala Asp Gly Thr Phe Thr Ser Asp Tyr Ser Lys Tyr Leu Glu Glu Glu Ile Val Lys Tyr Phe Ile Gln Trp Leu Lys Asn Gly Gly Pro Ser Lys Asn Asn Ile Ala ([dH]ADGTFTSDYSKYLEEEIVKYFIQWLKNGGPSKNNIA) [PEPTIDE NO: 167]
5 nmoles/kg, 32 hours observed
  food intake suppression continues for: ≥ 32 h
5 nmoles/kg, over 32 hours
  Mean cumulative food intake in comparison to saline control: potent and long acting suppression of food intake
  food intake in comparison to control group treated with native oxyntomodulin: lower than in the control group treated with native oxyntomodulin

## D-His Ser Gln Gly Thr Phe Thr Ser Asp Tyr Ser Lys Tyr Leu Glu Glu Glu Leu Val Lys Tyr Phe Ile Gln Trp Leu Lys Asn Ala Gly Pro Ser Lys Asn Asn Ile Ala ([dH]SQGTFTSDYSKYLEEELVKYFIQWLKNAGPSKNNIA) [PEPTIDE NO: 58]
10 nmoles/kg, over 24 hours
  Mean cumulative food intake in comparison to saline control: potent and long acting suppression of food intake
  food intake in comparison to control group treated with native oxyntomodulin: lower than in the control group treated with native oxyntomodulin

## D-His Ala Asp Gly Thr Phe Thr Ser Asp Tyr Ser Lys Tyr Leu Glu Glu Glu Leu Val Lys Tyr Phe Ile Gln Trp Leu Lys Asn Gly Gly Pro Ser Lys Asn Asn Ile Ala Ala Ala Lys-palmitoyl ([dH]ADGTFTSDYSKYLEEELVKYFIQWLKNGGPSKNNIAAAK(Palmitoyl)) [PEPTIDE NO: 207]
80 mmoles/kg, over 48 hours
  food intake in comparison to control group treated with native oxyntomodulin: lower than in the control group treated with native oxyntomodulin
Over 48 hours
  Mean cumulative food intake in comparison to saline control: potent and long acting suppression of food intake

## D-His Ala Asp Gly Thr Phe Thr Ser Asp Tyr Ser Lys Tyr Leu Glu Glu Glu Leu Val Lys Tyr Phe Ile Gln Trp Leu Lys Asn Gly Gly Pro Ser Lys Asn Asn Ile Ala Lys ([dH]ADGTFTSDYSKYLEEELVKYFIQWLKNGGPSKNNIAK) [PEPTIDE NO: 204]
5 nmoles/kg, over 32 hours
  Mean cumulative food intake in comparison to saline control: potent and long acting suppression of food intake
  food intake in comparison to control group treated with native oxyntomodulin: lower than in the control group treated with native oxyntomodulin

## D-His Ala Gln Gly Thr Phe Thr Ser Asp Tyr Ser Lys Tyr Leu Glu Glu Glu Leu Val Lys Tyr Phe Leu Gln Trp Leu Lys Asn Ala Gly Pro Ser Lys Asn Asn Ile Ala ([dH]AQGTFTSDYSKYLEEELVKYFLQWLKNAGPSKNNIA) [PEPTIDE NO: 100]
20 nmoles/kg, over 24 hours
  Mean cumulative food intake in comparison to saline control: potent and long acting suppression of food intake
  food intake in comparison to control group treated with native oxyntomodulin: lower than in the control group treated with native oxyntomodulin

## D-His Ala Asp Gly Thr Phe Thr Ser Asp Tyr Ser Lys Tyr Leu Glu Glu Glu Ile Val Lys Tyr Phe Ile Gln Trp Leu Met Asn Thr Lys Arg Asn Lys Asn Asn Ile Ala Lys ([dH]ADGTFTSDYSKYLEEEIVKYFIQWLMNTKRNKNNIAK) [PEPTIDE NO: 203]
100 nmoles/kg, 24 hours observed
  food intake suppression continues for: ≥ 24 h
100 nmoles/kg, over 24 hours
  Mean cumulative food intake in comparison to saline control: potent and long acting suppression of food intake
  food intake in comparison to control group treated with native oxyntomodulin: lower than in the control group treated with native oxyntomodulin

## PEPTIDE NO: 216: analogue of oxyntomodulin with Asn34 replaced by Asp34; sequence shown only in FIG. 1 (HSQGTFTSDYSKYLEEELVKYFLEWLKNAGPSKDNIA)
10 nmoles/kg, 24 hours observed
  food intake suppression continues for: ≥ 24 h
10 nmoles/kg, over 24 hours
  Mean cumulative food intake in comparison to saline control: potent and long acting suppression of food intake
  food intake in comparison to control group treated with native oxyntomodulin: lower than in the control group treated with native oxyntomodulin

## D-His Ala Asp Gly Thr Phe Thr Ser Asp Tyr Ser Lys Tyr Leu Glu Gln Glu Leu Val Lys Tyr Phe Leu Gln Trp Leu Lys Asn Ala Gly Pro Ser Lys Asn Asn Ile Ala ([dH]ADGTFTSDYSKYLEQELVKYFLQWLKNAGPSKNNIA) [PEPTIDE NO: 172]
3 nmoles/kg, over 24 hours
  Mean cumulative food intake in comparison to saline control: potent and long acting suppression of food intake
  food intake in comparison to control group treated with native oxyntomodulin: lower than in the control group treated with native oxyntomodulin

## D-His Ser Gln Gly Thr Phe Thr Ser Asp Tyr Ser Lys Tyr Leu Glu Gln Glu Ile Val Lys Tyr Phe Ile Gln Trp Leu Lys Asn Ala Gly Pro Ser Lys Asn Asn Ile Ala ([dH]SQGTFTSDYSKYLEQEIVKYFIQWLKNAGPSKNNIA) [PEPTIDE NO: 94]
5 nmoles/kg, over 24 hours
  Mean cumulative food intake in comparison to saline control: potent and long acting suppression of food intake
  food intake in comparison to control group treated with native oxyntomodulin: lower than in the control group treated with native oxyntomodulin

## His Ser Gln Gly Thr Phe Thr Ser Asp Tyr Ser Lys Tyr Leu Glu Glu Glu Ile Val Lys Tyr Phe ILe Gln Trp Leu Lys Asn Ala Gly Pro Ser Lys Asn Asn Ile Ala (HSQGTFTSDYSKYLEEEIVKYFIQWLKNAGPSKNNIA) [PEPTIDE NO: 22]
3 nmoles/kg, over 24 hours
  Mean cumulative food intake in comparison to saline control: potent and long acting suppression of food intake
  food intake in comparison to control group treated with native oxyntomodulin: lower than in the control group treated with native oxyntomodulin

## D-His Ala Asp Gly Thr Phe Thr Ser Asp Tyr Ser Lys Tyr Leu Glu Glu Glu Leu Val Lys Tyr Phe Ile Gln Trp Leu Lys Asn Gly Gly Pro Ser Lys Asn Asn Ile Ala ([dH]ADGTFTSDYSKYLEEELVKYFIQWLKNGGPSKNNIA) [PEPTIDE NO: 155]
4 nmoles/kg, 32 hours observed
  food intake suppression continues for: ≥ 32 h
4 nmoles/kg, over 32 hours
  Mean cumulative food intake in comparison to saline control: potent and long acting suppression of food intake
  food intake in comparison to control group treated with native oxyntomodulin: lower than in the control group treated with native oxyntomodulin

## D-His Ala Asp Gly Thr Phe Thr Ser Asp Tyr Ser Lys Tyr Leu Glu Glu Glu Ile Val Lys Tyr Phe Ile Glu Trp Leu Lys Asn Gly Gly Pro Ser Lys Asn Asn Ile Ala ([dH]ADGTFTSDYSKYLEEEIVKYFIEWLKNGGPSKNNIA) [PEPTIDE NO: 164]
4 nmoles/kg, 48 hours observed
  food intake suppression continues for: ≥ 48 h
4 nmoles/kg, over 48 hours
  Mean cumulative food intake in comparison to saline control: potent and long acting suppression of food intake
  food intake in comparison to control group treated with native oxyntomodulin: lower than in the control group treated with native oxyntomodulin
